Source: patent US8821754B2, “Additive for preserving the fluidity of fluids containing gas hydrates” (Akzo Nobel N.V., priority 2006, dated 2014)
Marks after values point to notes of the source that are not given here.

Experiments:
[1] = multicell screening of anti-agglomerants (stirred cells cooled to 4° C., 100 bars); set-up: key to Tests multicell screening, Seawater 1.0% / Tests multicell screening, Seawater 1.5% / Tests multicell screening, Fresh water 1.5% / Tests multicell screening, Fresh water 2.5%: 0: the compound does not work as an anti-agglomerant; 1: the compound initially works as an anti-agglomerant, but not throughout the whole test; 2: the compound works as an anti-agglomerant throughout the whole test; details: for Tests multicell screening, Seawater 1.5% / Tests multicell screening, Fresh water 1.5%: 1.5% anti-agglomerant; for Tests multicell screening, Seawater 1.5% / Tests multicell screening, Seawater 1.0% / Tests multicell screening, Fresh water 1.5% / Tests multicell screening, Fresh water 2.5%: 100 bars, 4° C., Sleipner condensate; for effect as anti-agglomerant for gas hydrates in the screening test, in words: multicell screening test of Example 1; for Tests multicell screening, Seawater 1.0%: 1.0% anti-agglomerant; for Tests multicell screening, Fresh water 2.5%: 2.5% anti-agglomerant
Description: (§1) The technique used for evaluating the anti-agglomerants is described in detail in “New Technique for Evaluating Antiagglomerate Gas-Hydrate Inhibitors in Oilfield Applications”, SPE 93075, 2005 SPE International Symposium on Oilfield Chemistry, Houston, Tex., Feb. 2-4.
(§2) The complete multicell system consists of a high-pressure vessel containing the multicell test unit, a cooling unit, a stirrer drive, a sensor interface unit, and a computer system. The high-pressure vessel is connected to two gas cylinders containing pressurized hydrocarbon gas (87.9% methane, 7.7% ethane, 3.1% propane, and 1.3% isobutane) and nitrogen. Thus, in an experimental run each test cell will be subjected to the same gas mixture, temperature, and pressure. Each cell has a magnetic bar stirrer and the rotation of the stirrer is monitored by the sensor and recorded. When gas hydrate crystals are formed in a cell, there will be a change in viscosity or flow behaviour and there will be a change in the lag of the stirrer bar. Each time the magnetic bar passes a certain point, an optical pulse is recorded. The lag is measured as the difference between the position of the lower drive magnets and the stirrer in the cell. When the viscosity gets too high, as is the case when larger aggregates of gas hydrates are formed, the magnetic stirrer will either stop completely, in which case the signal will be zero, or start “skipping”, which will create an unstable/random signal, and this will be shown in the recorded graph.
(§3) Each cell is also equipped with a temperature sensor.
The cells are loaded with 1 ml of water/inhibitor mixture and 2.5 ml of Sleipner condensate (=crude oil obtained from the Sleipner oilfield of Statoil). Nitrogen is first applied to expel most of the air, and then hydrocarbon gas is admitted until a constant pressure of 100 bars is reached.
During the whole test, the mixtures were continuously stirred at 120 rpm. The temperature was first lowered from about 20° C. to 4° C. in about 1.5 hours, then kept at 4° C. for about two hours, and finally reheated again to 20° C. in about 1.5 hours. When the stirrer works all the time, the compound is considered to work well as an anti-agglomerant, whereas if the stirrer bar stops, the compound is considered not to work as an anti-agglomerant during the prevailing conditions. The tests were performed both in seawater and in fresh water and at different concentrations of the anti-agglomerants.

[2] = multicell shut-in and restart test of anti-agglomerants; set-up: key: 0: The stirrer did not start at all until the temperature had been increased so much that the gas hydrate had melted; 1: The stirrer started but stopped again after a short period; 2: The stirrer started and kept on running continuously; details: restart after at least twelve hours at 4° C.; for Tests multicell shut-in, Fresh water (70 bar) 2.5% / Tests multicell shut-in, Seawater (70 bar) 2.5%: 2.5% anti-agglomerant; for Tests multicell shut-in, Fresh water (70 bar) 2.0%: 2.0% anti-agglomerant
Description: as §1, §2, §3
The cells are loaded in the same way as above, but hydrocarbon gas is admitted until the constant stated pressure is reached.
In this experiment the test cells were stirred at 120 rpm for one hour at 20° C. and the stated pressure. The stirring was then stopped and the autoclave cooled to 4° C. in about 1.5 hours. The cells were then kept at 4° C. for a minimum of twelve hours before the driving magnets were restarted at 120 rpm. They were then kept running for about two hours at 4° C. before the cells were reheated to 20° C. in about 1.5 hours.
This is marked as 0 in the tables. • The stirrer started but stopped again after a short period. This is marked as 1 in the tables. • The stirrer started and kept on running continuously. This is marked as 2 in the tables.

[3] = seawater, 1.5% anti-agglomerant

For `CCCCCCCC/C=C\CCCCCCCCN(CCCNC(C)=O)C(C)=O` [Compound 10, N-oleyl-trimethylene diamine diamidated with acetic anhydride], the “Tests multicell screening, Seawater 1.5%” value [1] was 2, the “Tests multicell shut-in, Fresh water (70 bar) 2.5%” value [2] was 2 and the “Tests multicell shut-in, Seawater (70 bar) 1.5%” value [2, 3] was 0. For the same molecule, the “Tests multicell shut-in, Seawater (70 bar) 2.5%” value ([2]; seawater) was 2.

For `CCCCCCCCN(CCCNC(C)=O)C(C)=O` [Compound 11, N-(n-octyl)-trimethylene diamine diamidated with acetic anhydride], the “Tests multicell screening, Seawater 1.5%” value [1] was 2.

With `CCCCC(CC)CN(CCCNC(C)=O)C(C)=O` (centres unmarked) [Compound 14, N-(2-ethylhexyl)-trimethylene diamine, diamidated with acetic anhydride] the “Tests multicell shut-in, Fresh water (70 bar) 2.5%” value [2] was 2, the “Tests multicell shut-in, Seawater (70 bar) 1.5%” value [2, 3] was 0 and the “Tests multicell shut-in, Seawater (70 bar) 2.5%” value ([2]; seawater) was 0.

In the case of “(Coco alkyl)amine + 2EO + 2PO [Compound 3]”, the “effect as anti-agglomerant for gas hydrates in the screening test, in words” value (from here on “effect as anti-agglomerant”) [1] is reported as “works excellently as an anti-agglomerant”, the “Tests multicell screening, Seawater 1.0%” value [1] is reported as 2 and the “Tests multicell screening, Seawater 1.5%” value [1] is reported as 2. For the same molecule, the “Tests multicell shut-in, Fresh water (70 bar) 2.0%” value [2] was 2, the “Tests multicell shut-in, Seawater (70 bar) 1.5%” value [2, 3] was 0 and the “Tests multicell shut-in, Seawater (70 bar) 2.5%” value ([2]; seawater) was 1.

With “(Coco alkyl)amine + 2EO [B, reference compound]” the “effect as anti-agglomerant” value [1] was “not effective”, the “Tests multicell screening, Seawater 1.0%” value [1] was 0 and the “Tests multicell screening, Seawater 1.5%” value [1] was 0.

For “(Coco alkyl)amine + 4 EO [reference compound]”, the “effect as anti-agglomerant” value [1] was “not effective”, the “Tests multicell screening, Seawater 1.0%” value [1] was 0 and the “Tests multicell screening, Seawater 1.5%” value [1] was 0.

In the case of Erucyl amine + 2EO + 2PO [Compound 2], the “Tests multicell screening, Fresh water 1.5%” value [1] is reported as 2 and the “Tests multicell screening, Seawater 1.5%” value [1] is reported as 2.

In the case of “Monoamide between oleic acid and aminoethyl ethanolamine + 1EO, diesterified with acetic anhydride [Compound 7]”, the “Tests multicell screening, Seawater 1.0%” value [1] is reported as 2.

In the case of “Monoamide between oleic acid and aminoethyl ethanolamine, amidated with acetic anhydride [Compound 8]”, the “Tests multicell screening, Fresh water 1.5%” value [1] is reported as 2, the “Tests multicell screening, Seawater 1.0%” value [1] is reported as 2 and the “Tests multicell screening, Seawater 1.5%” value [1] is reported as 2.

In the case of “N,N-bis(3-aminopropyl)(tallow alkyl)amine, diamidated with acetic anhydride [Compound 9]”, the “Tests multicell screening, Seawater 1.0%” value [1] is reported as 0 and the “Tests multicell screening, Seawater 1.5%” value [1] is reported as 2.

With “N-(2-ethylhexyl)-trimethylene diamine + 3PO [Compound 15]” the “Tests multicell shut-in, Fresh water (70 bar) 2.5%” value [2] was 1 and the “Tests multicell shut-in, Seawater (70 bar) 2.5%” value ([2]; seawater) was 2.

With “N-(coco alkyl)-trimethylene diamine diamidated with acetic anhydride [Compound 12]” the “Tests multicell screening, Seawater 1.5%” value [1] was 2.

In the case of “N-(n-octyl)-trimethylene diamine + 3PO [Compound 4]”, the “Tests multicell screening, Seawater 1.5%” value [1] is reported as 2.

In the case of “N-(tallow alkyl)-N-methyl aminopropylamine monoamidated with acetic anhydride [Compound 13]”, the “Tests multicell screening, Seawater 1.5%” value [1] is reported as 2.

With “N-oleyl-trimethylene diamine + 3EO, triesterified with acetic anhydride [Compound 6]” the “Tests multicell screening, Fresh water 2.5%” value [1] was 2, the “Tests multicell screening, Seawater 1.5%” value [1] was 2 and the “Tests multicell shut-in, Fresh water (70 bar) 2.5%” value [2] was 2. For the same molecule, the “Tests multicell shut-in, Seawater (70 bar) 1.5%” value [2, 3] was 0 and the “Tests multicell shut-in, Seawater (70 bar) 2.5%” value ([2]; seawater) was 1.

For Oleyl amine + 2EO + 2PO [Compound 1], the “Tests multicell screening, Seawater 1.5%” value [1] was 2, the “Tests multicell shut-in, Fresh water (70 bar) 2.0%” value [2] was 1 and the “Tests multicell shut-in, Fresh water (70 bar) 2.5%” value [2] was 1. The “Tests multicell shut-in, Seawater (70 bar) 2.5%” value ([2]; seawater) was 1 and the “Tests multicell shut-in, Seawater 1.5%, measured at 100 bar” value ([2]; seawater, 100 bar, 1.5% anti-agglomerant) was 2**.

In the case of “Oleyl amine + 2EO + 2PO, quaternized with CH3Cl [reference compound]”, the “Tests multicell screening, Fresh water 1.5%” value [1] is reported as 0 and the “Tests multicell screening, Seawater 1.5%” value [1] is reported as 2.

For “Oleyl amine + 2EO [D, reference compound]”, the “Tests multicell screening, Seawater 1.0%” value [1] was 0.

With “Oleyl amine + 2EO, diester with acetic acid [Compound 5]” the “Tests multicell screening, Fresh water 1.5%” value [1] was 0, the “Tests multicell screening, Fresh water 2.5%” value [1] was 0 and the “Tests multicell screening, Seawater 1.0%” value [1] was 0. For the same molecule, the “Tests multicell screening, Seawater 1.5%” value [1] was 2.
